Results reported in ChEMBL document CHEMBL6087433, “Discovery of ART0380, a Potent and Selective ATR Kinase Inhibitor Undergoing Phase 2 Clinical Studies for the Treatment of Advanced or Metastatic Solid Cancers” (J Med Chem, 2024).
In brackets after ≈: the same amount, converted by molar mass. Activity calls are given as the source filed them. No cut-off for these calls is given here.

Assays:
in vivo [1] = conditions: Sprague-Dawley, rat, po, 10 mg/kg
in vivo [2] = conditions: CD-1, mouse, po, 10 mg/kg
in vivo [3] = conditions: CD-1, mouse, plasma, iv, 1 mg/kg
Cytochrome P450 3A4 = Cytochrome P450 3A4 (Homo sapiens, UniProt P08684)
in vivo [4] = conditions: Sprague-Dawley, rat, po, 10 mg/kg; remark: listed apart in the source
in vivo [5] = conditions: Sprague-Dawley, rat, po, 10 mg/kg; remark: listed apart in the source
Mus musculus = species on record: Mus musculus; conditions: CD-1, dose 30-50 mg/kg, route po, time 4.0 hrs
in vitro [6] = conditions: human, plasma
Description: Protein binding in human plasma assessed as free fraction at 5 uM incubated for 5 hrs by equilibrium dialysis method

in vivo [7] = conditions: CD-1, mouse, po, 10 mg/kg; remark: listed apart in the source
in vitro [8] = conditions: dog, plasma
Description: Protein binding in dog plasma assessed as free fraction at 5 uM incubated for 5 hrs by equilibrium dialysis method

in vitro [9] = conditions: human, Caco-2
Description: Apparent permeability of the compound across basolateral to apical side in human Caco-2 cells at 10 uM

in vivo [10] = conditions: Sprague-Dawley, rat, plasma, iv, 1 mg/kg
in vivo [11] = conditions: CD-1, mouse, po, 30 mg/kg
Cytochrome P450 1A2 = target: T1, Cytochrome P450 1A2 (Homo sapiens, UniProt P05177)
T1 sequence (P05177 whole entry): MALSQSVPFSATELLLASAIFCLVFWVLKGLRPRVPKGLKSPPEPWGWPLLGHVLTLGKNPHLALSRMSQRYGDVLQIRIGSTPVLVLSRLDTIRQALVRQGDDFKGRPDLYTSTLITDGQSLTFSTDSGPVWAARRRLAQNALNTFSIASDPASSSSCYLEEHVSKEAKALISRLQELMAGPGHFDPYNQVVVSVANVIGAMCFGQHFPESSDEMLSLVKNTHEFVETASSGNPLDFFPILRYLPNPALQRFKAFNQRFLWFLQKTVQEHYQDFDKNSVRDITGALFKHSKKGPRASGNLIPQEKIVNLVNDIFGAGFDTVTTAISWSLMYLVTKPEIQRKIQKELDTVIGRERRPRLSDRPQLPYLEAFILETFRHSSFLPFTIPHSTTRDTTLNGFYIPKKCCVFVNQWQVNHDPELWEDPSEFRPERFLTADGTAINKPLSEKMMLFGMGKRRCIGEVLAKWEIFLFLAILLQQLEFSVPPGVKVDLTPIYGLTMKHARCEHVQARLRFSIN

in vitro [12] = conditions: dog, hepatocytes
Description: Intrinsic clearance in dog hepatocytes

Granta-519 = assay: cells; conditions: Homo sapiens
Description: Antiproliferative activity against human Granta-519 cells assessed as inhibition of cell growth incubated for 7 days by CellTiter-Glo 2.0 assay

physchem [13] = conditions: Fasted State Simulated Intestinal Fluid
Description: Thermodynamic solubility of the compound in Fasted State Simulated Intestinal Fluid

in vitro [14] = conditions: human, CCD-18Co cells
Description: Cytotoxicity against human CCD-18Co cells assessed as inhibition of cell growth incubated for 7 days by CellTiter-Glo 2.0 assay

physchem [15] = conditions: Fed State Simulated Intestinal Fluid
Description: Thermodynamic solubility of the compound in Fed State Simulated Intestinal Fluid

[16] = target: Serine/threonine-protein kinase mTOR (Homo sapiens, UniProt P42345)
in vivo [17] = conditions: cynomolgus monkey, po, 10 mg/kg
in vitro [18] = conditions: cynomolgus monkey, plasma
Description: Protein binding in cynomolgus monkey plasma assessed as free fraction at 5 uM incubated for 5 hrs by equilibrium dialysis method

in vivo [19] = conditions: beagle, dog, iv, 1 mg/kg
Description: Volume of distribution at steady state in Beagle dog at 1 mg/kg, iv

in vivo [20] = conditions: CD-1, mouse, po, 30 mg/kg; remark: listed apart in the source
in vivo [21] = conditions: Beagle, dog, po, 10 mg/kg
in vitro [22] = conditions: mouse, plasma
Description: Protein binding in mouse plasma assessed as free fraction at 5 uM incubated for 5 hrs by equilibrium dialysis method

[23] = target: Phosphatidylinositol 3-kinase catalytic subunit type 3 (Homo sapiens, UniProt Q8NEB9)
Chain of Phosphatidylinositol 3-kinase catalytic subunit type 3 (Q8NEB9 whole entry): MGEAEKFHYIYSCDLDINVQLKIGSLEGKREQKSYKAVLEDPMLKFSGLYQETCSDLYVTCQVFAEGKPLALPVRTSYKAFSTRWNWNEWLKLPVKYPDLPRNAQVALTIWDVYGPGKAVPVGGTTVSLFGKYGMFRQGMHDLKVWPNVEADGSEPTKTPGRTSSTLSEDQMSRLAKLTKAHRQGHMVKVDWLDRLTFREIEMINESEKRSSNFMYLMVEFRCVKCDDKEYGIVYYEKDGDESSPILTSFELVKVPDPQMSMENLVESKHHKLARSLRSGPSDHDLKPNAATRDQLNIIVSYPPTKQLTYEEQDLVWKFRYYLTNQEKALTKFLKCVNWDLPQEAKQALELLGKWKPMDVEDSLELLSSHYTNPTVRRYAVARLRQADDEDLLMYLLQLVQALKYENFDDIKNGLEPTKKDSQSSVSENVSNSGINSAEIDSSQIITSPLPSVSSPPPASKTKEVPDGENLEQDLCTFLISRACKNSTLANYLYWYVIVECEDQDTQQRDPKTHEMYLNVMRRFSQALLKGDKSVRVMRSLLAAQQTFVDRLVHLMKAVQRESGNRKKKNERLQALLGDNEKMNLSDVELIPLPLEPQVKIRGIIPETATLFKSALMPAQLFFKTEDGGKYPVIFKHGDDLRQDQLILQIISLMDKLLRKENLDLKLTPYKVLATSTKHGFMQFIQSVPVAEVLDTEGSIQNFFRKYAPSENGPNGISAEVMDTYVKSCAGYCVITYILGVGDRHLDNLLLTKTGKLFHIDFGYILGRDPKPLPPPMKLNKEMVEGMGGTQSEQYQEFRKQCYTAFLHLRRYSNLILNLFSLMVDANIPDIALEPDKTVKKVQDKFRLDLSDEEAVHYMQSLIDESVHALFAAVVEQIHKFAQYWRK
Description: Inhibition of VPS34 (unknown origin) by ADP-Glo assay

Chain of Cytochrome P450 3A4 (P08684 whole entry): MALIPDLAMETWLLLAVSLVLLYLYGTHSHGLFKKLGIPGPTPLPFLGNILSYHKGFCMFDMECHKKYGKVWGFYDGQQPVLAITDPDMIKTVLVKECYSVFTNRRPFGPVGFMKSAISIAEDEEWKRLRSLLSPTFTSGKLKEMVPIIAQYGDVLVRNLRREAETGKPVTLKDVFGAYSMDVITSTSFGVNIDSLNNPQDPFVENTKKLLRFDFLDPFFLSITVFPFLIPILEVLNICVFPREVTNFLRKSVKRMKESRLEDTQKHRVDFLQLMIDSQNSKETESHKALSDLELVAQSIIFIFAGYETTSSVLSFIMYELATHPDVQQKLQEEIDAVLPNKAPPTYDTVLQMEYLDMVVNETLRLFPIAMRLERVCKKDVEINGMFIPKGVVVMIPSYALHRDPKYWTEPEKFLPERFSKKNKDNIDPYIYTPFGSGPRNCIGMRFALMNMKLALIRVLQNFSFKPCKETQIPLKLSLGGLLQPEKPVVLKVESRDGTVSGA

Q: With `C[C@@H]1COCCN1c1cc(N=[S@@](C)(=O)C2CC2)nc(-c2ccnc(N)c2)n1` as the compound, how does the AUC(0-t) (in vivo [1]) read?
A: Its AUC(0-t) is 3.78 µM·h.

Q: What about the Tmax (in vivo [2]) of the same compound?
A: The Tmax was 15 min.

Q: And the clearance (in vivo [3])?
A: Its clearance is 69 mL/min/kg.

Q: And the IC50 (Cytochrome P450 3A4)?
A: The IC50 was over 10 µM.

Q: And the Tmax (in vivo [4])?
A: Its Tmax is 11.4 min.

Q: What about the Cmax (in vivo [5]) of the same compound?
A: Its Cmax is 5.56 µM.

Q: And the inhibition (Mus musculus)?
A: Its inhibition is “Active”.

Q: And the fraction unbound at 5 h, 5 µM (in vitro [6])?
A: Its fraction unbound at 5 h, 5 µM is 0.45.

Q: What about the Cmax (in vivo [7]) of the same compound?
A: The Cmax was 3.16 µM.

Q: And the fraction unbound at 5 h, 5 µM (in vitro [8])?
A: Its fraction unbound at 5 h, 5 µM is 0.55.

Q: What about the Papp B→A at 10 µM (in vitro [9]) of the same compound?
A: The Papp B→A at 10 µM was 34 ×10⁻⁶ cm/s.

Q: And the clearance (in vivo [10])?
A: The clearance was 98 mL/min/kg.

Q: What about the Tmax (in vivo [11]) of the same compound?
A: The Tmax was 15 min.

Q: What about the IC50 (Cytochrome P450 1A2) of the same compound?
A: Its IC50 is over 10 µM.

Q: What about the CLint scaled (in vitro [12]) of the same compound?
A: The CLint scaled was 6 mL/min/kg.

Q: And the EC50 (Granta-519)?
A: Its EC50 is 0.448 µM.

Q: What about the solubility thermodynamic (physchem [13]) of the same compound?
A: The solubility thermodynamic was 1600 µg/mL (≈ 4.12 mM).

Q: What about the EC50 at 7 days (in vitro [14]) of the same compound?
A: The EC50 at 7 days was 6.92 µM.

Q: And the solubility thermodynamic (physchem [15])?
A: The solubility thermodynamic was over 5000 µg/mL.

Q: What about the IC50 [16] of the same compound?
A: The IC50 was 8.38 µM.

Q: What about the Cmax (in vivo [17]) of the same compound?
A: The Cmax was 0.04 µM.

Q: And the fraction unbound at 5 h, 5 µM (in vitro [18])?
A: The fraction unbound at 5 h, 5 µM was 0.54.

Q: And the Vd (in vivo [19])?
A: The Vd was 3.6 L/kg.

Q: What about the Cmax (in vivo [20]) of the same compound?
A: The Cmax was 16.1 µM.

Q: What about the Tmax (in vivo [21]) of the same compound?
A: The Tmax was 34.8 min.

Q: And the fraction unbound at 5 h, 5 µM (in vitro [22])?
A: Its fraction unbound at 5 h, 5 µM is 0.33.

Q: What about the IC50 [23] of the same compound?
A: The IC50 was over 50 µM.
